Test results: PMC9921564, “Novel Indole-Containing Hybrids Derived from Millepachine: Synthesis, Biological Evaluation and Antitumor Mechanism Study” (Molecules, 2023)

Experiments:
[1] = tested on: Caski (human epithelial cervical cancer cell line); test: CCK-8 antiproliferative assay, Caski; format: cell-based; conditions: Ca-Ski, 48 h, read-out: IC50, Mean ± SE, Caski
[2] = tested on: C42B (human prostate cancer line); test: CCK-8 antiproliferative assay, C42B; format: cell-based; conditions: 48 h, read-out: IC50, Mean ± SE, C42B
A549 cells = test: cell cycle analysis by flow cytometry (PI); format: cell-based, human; conditions: 24 h, control 14.92%
Protocol: Microtubules play an important role in maintaining the normal process of cell mitosis.
Figure 3 Compound 14b induced cell cycle arrest at the G2/M phase. (A) The PI-stained DNA content detected by flow cytometry. A549 cells were treated with or without compound 14b at concentrations of 10, 20 and 50 nM for 24 h; then, the cells were harvested for cell cycle analysis by flow cytometry. (B) Quantitative analysis of the percentage of cells in each cell cycle phase by CytExpert analysis software. The experiments were performed at least three times, and the results of the representative experiments are shown.
S Ⅳ. Biological evaluation methods
The cells grown in logarithmical phase were seeded in 96-well plates with the density of 5×10^3/well.
(§1) After 24 h, the medium containing different concentrations of tested compounds were added for another 48 h. Then, CCK-8 reagents were added to cells and continued to culture for 2 h. The optical density was recorded with a microplate reader at 570 nm (Thermo Scientific, Varioskan LUX). All the experiments were repeated independently at least three times and the IC50 values were calculated […]
S2. In vitro tubulin polymerization inhibition assay
The in vitro tubulin polymerization inhibition assay was conducted according to the manufacturer ’s instruction (cytoskeleton, cat. no. BK011P). Briefly, 5 μL of the tested compounds at the indicated concentrations which were prepared with the buffer solution (containing 80.0 mM piperazine-N,N-bis(2-ethanesulfonic acid) sequiso-dium salt (pH 6.9), 10.2% glycerol, 2.0 mM MgCl2, 1 mM GTP, and 0.5 mM EGTA) was added to the plate. After the mixture was warmed to 37 °C for 1 min, the reaction was initiated by the addition of 55 μL of the tubulin solution which was kept on ice in prior.
The fluorescence intensity enhancement (emission wavelength is 410 nm, excitation wavelength is 340 nm) was recorded every 60 s for 60 min in a multifunction microplate reader (Molecular Devices, Flex Station 3). […]

[3] = tested on: L-02 (normal human hepatocytes); test: CCK-8 cytotoxicity, L-02 normal cells; format: cell-based
From the text: (§2) A549 (non-small-cell-lung cancer cell line), Caski (human epithelial cervical cancer cell line), HepG2 (human liver carcinoma cell line), MCF-7 (human breast carcinoma cell line), C42B (human prostate cancer line C42B), L-02 (human normal hepatocytes), RWPE-1 (human prostate epithelial cells) and MCF-10A (human normal mammary epithelial cells) were obtained from National Collection of Authenticated Cell Cultures (Shanghai, China). A549/CDDP (A549 cell line resistant to cisplatin), C42B/ENZR (C42b cell line resistant to Enzalutamide), MCF-7/DOX (MCF-7 cell line resistant to doxorubicin), A2780/TAX (human ovarian cancer cell line A2780 resistant to taxol) and HCT-8/VCR (human ileocecum carcinoma cell lines HCT-8 resistant to vincristine) were kindly provided by Professor Junjian Wang and Professor Xingshu Li at Sun Yat-Sen University, China. […]
as §1, with “Then, CCK-8 reagents were added to cells and continued to culture for 2 h.” left out

[4] = tested on: A549 (human non-small-cell-lung cancer cell line); test: CCK-8 antiproliferative assay, A549; format: cell-based; conditions: 48 h, read-out: IC50, Mean ± SE, A549
[5] = tested on: MCF-10A (normal human mammary epithelial cells); test: CCK-8 cytotoxicity, MCF-10A normal cells; format: cell-based
From the text: as §2
as §1, with “Then, CCK-8 reagents were added to cells and continued to culture for 2 h.” left out

[6] = target: tubulin (colchicine binding site) (Sus scrofa, UniProt P02554); test: colchicine competitive inhibition (binding) assay
Protocol: Tubulin–microtubule homeostasis is crucial for cell mitosis.
Figure 2 Effect of compound 14b on tubulin. […] The experiments were performed at least three times, and representative images are shown. Scale bars are 10 μm. […] The backbone of tubulin is shown in ribbon representation (α-tubulin, yellow; β-tubulin, green). […] The data were shown as mean ± SE (standard error) of at least three independent experiments.

## COc1ccc(C(=O)c2ccc3c(ccn3C)c2)c2c1C=CC(C)(C)O2 [compound 14b, (5-methoxy-2,2-dimethyl-2H-chromen-8-yl)(1-methyl-1H-indol-5-yl)methanone]
[1]
  IC50: 37 ± 3 nM
[2]
  IC50: 51 ± 5 nM
A549 cells; A549, 10 nM
  percentage of cells in G2/M: 26.88%
A549 cells; A549, 20 nM
  percentage of cells in G2/M: 35.02%
A549 cells; A549, 50 nM
  percentage of cells in G2/M: 52.67%
[3]; Homo sapiens, Hepatocyte, 48 h, CCK-8, normal cells, read-out: IC50, Mean ± SE, L-02
  IC50: 1260 ± 214 nM
[3]; IC50 L-02 / IC50 Hep-G2
  Selectivity Ratio: 16.97
[4]
  IC50: 22 ± 2 nM
[5]; Homo sapiens, MCF-10A, 48 h, CCK-8, normal cells, read-out: IC50, Mean ± SE, MCF-10A
  IC50: 6260 ± 311 nM
[5]; IC50 MCF-10A / IC50 MCF-7
  Selectivity Ratio: 231.7
[6]
  IC50: 1040 ± 20 nM
